According to PubChem BioAssay (NCI):
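Cells were grown in 96-well plates and exposed to each compound for 48 hours at five concentrations; endpoints were interpolated linearly between bracketing concentrations, or set to the highest concentration if not reached. GI50 marks 50% less growth. At the TGI there is no net growth.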

tested on: HL-60(TB) leukemia; experiment: NCI tumour cell line growth inhibition, 48 h

| Structure (SMILES) | TGI |
| --- | --- |
| CO/N=C(\C)c1ccc(Nc2nc3ccccc3c3occc23)cc1 | 50.4 µM |
| O=c1cc[nH]c(=O)[nH]1 | > 1000 µM |
| O=P(O)(O)CCP(=O)(O)O | > 100 µM |
| O=c1sc2ccccc2n1CC1CS1 (centres undefined) | > 100 µM |
| O=C1c2cccc3c2C(=O)c2c(cccc21)OCCOCCOCCOCCO3 | > 100 µM |
| C=CCc1c(O)c2c(c3oc(=O)cc(C)c13)CC(C)O2 (centres undefined) | > 100 µM |
| CN(C)c1ccc(/C=c2/c3ccccc3n3c2c2c([n+]3C)CCCC2)cc1 | 0.363 µM |
| CCOc1ncn(-c2ccc(NC(=S)Nc3ncccn3)cc2)n1 | 65.2 µM |
| CC1(C)OC(C(=O)Nc2cc3c4ccccc4ccc3c3ccccc23)C(C(=O)N2CCCCC2)O1 (centres undefined) | > 100 µM |
| COc1cc2c(cc1OC)C(CC1=C(c3ccccc3)CN3CCc4cc(OC)c(OC)cc4C3C1)NCC2 (centres undefined) | 28.6 µM |
| Nc1c(C(=O)O)nnc2ccc(Cl)cc12 | > 100 µM |
| O=C(O)C(O)C(O)C(O)C(O)c1nc2ccccc2s1 (centres undefined) | 46 µM |

tested on: HOP-18 NSCLC; experiment: NCI tumour cell line growth inhibition, 48 h

| Structure (SMILES) | TGI |
| --- | --- |
| CCCC(=O)OCC1OC(n2ccc(N)nc2=O)C(OC(=O)CCC)C1OC(=O)CCC (centres undefined) | > 100 µM |
| CC(=O)OC1/C=C(\C)C(OC(C)=O)C/C=C(/C)CCC2C(/C=C/C1=O)C2(C)C (centres undefined) | > 100 µM |
| COc1ccc(/C=C2\CCNC2=O)cc1 | > 100 µM |
| CC(C)Cc1ccc(C(C)C(=O)N2CCN(/C=C/c3ccccc3)CC2)cc1 (centres undefined) | 35.9 µM |
| O=c1cc[nH]c(=O)[nH]1 | > 1000 µM |
| O=C1c2cccc3c2C(=O)c2c(cccc21)OCCOCCOCCOCCO3 | > 100 µM |
| C=CCc1c(O)c2c(c3oc(=O)cc(C)c13)CC(C)O2 (centres undefined) | > 100 µM |
| COc1cc2c(cc1OC)C(CC1=C(c3ccccc3)CN3CCc4cc(OC)c(OC)cc4C3C1)NCC2 (centres undefined) | 30.9 µM |

tested on: HT29 colon; experiment: NCI tumour cell line growth inhibition, 48 h

| Structure (SMILES) | TGI |
| --- | --- |
| CCCC(=O)OCC1OC(n2ccc(N)nc2=O)C(OC(=O)CCC)C1OC(=O)CCC (centres undefined) | > 100 µM |
| O=S(=O)(O)CCCc1cccc2ccccc12 | > 100 µM |
| CC(=O)OC1/C=C(\C)C(OC(C)=O)C/C=C(/C)CCC2C(/C=C/C1=O)C2(C)C (centres undefined) | > 100 µM |
| NC(CCCCCP(=O)(c1ccccc1)C1C=CC=CC1)C(=O)O (centres undefined) | > 100 µM |
| COc1ccc(/C=C2\CCNC2=O)cc1 | > 100 µM |
| CC(C)Cc1ccc(C(C)C(=O)N2CCN(/C=C/c3ccccc3)CC2)cc1 (centres undefined) | 28 µM |
| CO/N=C(\C)c1ccc(Nc2nc3ccccc3c3occc23)cc1 | 14.5 µM |
| O=c1cc[nH]c(=O)[nH]1 | > 1000 µM |
| O=P(O)(O)CCP(=O)(O)O | > 100 µM |
| O=c1sc2ccccc2n1CC1CS1 (centres undefined) | > 100 µM |
| Cc1n(Cc2ccccc2)c2c([n+]1C)C(=O)c1ccccc1C2=O | 0.353 µM |
| O=C1c2cccc3c2C(=O)c2c(cccc21)OCCOCCOCCOCCO3 | > 100 µM |
| C=CCc1c(O)c2c(c3oc(=O)cc(C)c13)CC(C)O2 (centres undefined) | > 100 µM |
| CN(C)c1ccc(/C=c2/c3ccccc3n3c2c2c([n+]3C)CCCC2)cc1 | 1.61 µM |
| CCOc1ncn(-c2ccc(NC(=S)Nc3ncccn3)cc2)n1 | 25.7 µM |
| CC1(C)OC(C(=O)Nc2cc3c4ccccc4ccc3c3ccccc23)C(C(=O)N2CCCCC2)O1 (centres undefined) | > 100 µM |
| CCN(CC)CCNc1ccc2nnn3c4ccc(OCCN(CC)CC)cc4c(=O)c1c23 | 54.2 µM |
| COc1cc2c(cc1OC)C(CC1=C(c3ccccc3)CN3CCc4cc(OC)c(OC)cc4C3C1)NCC2 (centres undefined) | 26.3 µM |
| CC(=O)Nc1ccc(N=Nc2c(O)c(S(=O)(=O)O)cc3cc(S(=O)(=O)O)ccc23)cc1 | > 100 µM |
| Nc1c(C(=O)O)nnc2ccc(Cl)cc12 | > 100 µM |
| O=C(O)C(O)C(O)C(O)C(O)c1nc2ccccc2s1 (centres undefined) | 41.9 µM |

tested on: MALME-3M melanoma; experiment: NCI tumour cell line growth inhibition, 48 h

| Structure (SMILES) | TGI | GI50 |
| --- | --- | --- |
| CCCC(=O)OCC1OC(n2ccc(N)nc2=O)C(OC(=O)CCC)C1OC(=O)CCC (centres undefined) | > 100 µM | – |
| O=S(=O)(O)CCCc1cccc2ccccc12 | > 100 µM | – |
| CC(=O)OC1/C=C(\C)C(OC(C)=O)C/C=C(/C)CCC2C(/C=C/C1=O)C2(C)C (centres undefined) | > 100 µM | – |
| COc1ccc(/C=C2\CCNC2=O)cc1 | > 100 µM | – |
| CC(C)Cc1ccc(C(C)C(=O)N2CCN(/C=C/c3ccccc3)CC2)cc1 (centres undefined) | 30.4 µM | – |
| CO/N=C(\C)c1ccc(Nc2nc3ccccc3c3occc23)cc1 | 28.3 µM | – |
| O=c1cc[nH]c(=O)[nH]1 | > 1000 µM | > 851 µM |
| O=P(O)(O)CCP(=O)(O)O | > 100 µM | – |
| O=c1sc2ccccc2n1CC1CS1 (centres undefined) | > 100 µM | – |
| Cc1n(Cc2ccccc2)c2c([n+]1C)C(=O)c1ccccc1C2=O | 0.0577 µM | – |
| O=C1c2cccc3c2C(=O)c2c(cccc21)OCCOCCOCCOCCO3 | > 100 µM | – |
| C=CCc1c(O)c2c(c3oc(=O)cc(C)c13)CC(C)O2 (centres undefined) | > 100 µM | – |
| CN(C)c1ccc(/C=c2/c3ccccc3n3c2c2c([n+]3C)CCCC2)cc1 | 0.866 µM | – |
| CC1(C)OC(C(=O)Nc2cc3c4ccccc4ccc3c3ccccc23)C(C(=O)N2CCCCC2)O1 (centres undefined) | > 100 µM | – |
| COc1cc2c(cc1OC)C(CC1=C(c3ccccc3)CN3CCc4cc(OC)c(OC)cc4C3C1)NCC2 (centres undefined) | 35.1 µM | – |
| CC(=O)Nc1ccc(N=Nc2c(O)c(S(=O)(=O)O)cc3cc(S(=O)(=O)O)ccc23)cc1 | > 100 µM | – |
| Nc1c(C(=O)O)nnc2ccc(Cl)cc12 | > 100 µM | – |
| O=C(O)C(O)C(O)C(O)C(O)c1nc2ccccc2s1 (centres undefined) | 36.7 µM | – |

tested on: MDA-N; experiment: NCI tumour cell line growth inhibition, 48 h

| Structure (SMILES) | TGI |
| --- | --- |
| O=S(=O)(O)CCCc1cccc2ccccc12 | > 100 µM |
| NC(CCCCCP(=O)(c1ccccc1)C1C=CC=CC1)C(=O)O (centres undefined) | > 100 µM |
| CO/N=C(\C)c1ccc(Nc2nc3ccccc3c3occc23)cc1 | 28.7 µM |
| O=P(O)(O)CCP(=O)(O)O | > 100 µM |
| Cc1n(Cc2ccccc2)c2c([n+]1C)C(=O)c1ccccc1C2=O | 0.32 µM |
| CN(C)c1ccc(/C=c2/c3ccccc3n3c2c2c([n+]3C)CCCC2)cc1 | 1.27 µM |
| CC1(C)OC(C(=O)Nc2cc3c4ccccc4ccc3c3ccccc23)C(C(=O)N2CCCCC2)O1 (centres undefined) | > 100 µM |
| CCN(CC)CCNc1ccc2nnn3c4ccc(OCCN(CC)CC)cc4c(=O)c1c23 | > 100 µM |
| CC(=O)Nc1ccc(N=Nc2c(O)c(S(=O)(=O)O)cc3cc(S(=O)(=O)O)ccc23)cc1 | > 100 µM |
| Nc1c(C(=O)O)nnc2ccc(Cl)cc12 | > 100 µM |
| O=C(O)C(O)C(O)C(O)C(O)c1nc2ccccc2s1 (centres undefined) | 33.2 µM |

tested on: MOLT-4 leukemia; experiment: NCI tumour cell line growth inhibition, 48 h

| Structure (SMILES) | TGI |
| --- | --- |
| CCCC(=O)OCC1OC(n2ccc(N)nc2=O)C(OC(=O)CCC)C1OC(=O)CCC (centres undefined) | 66.9 µM |
| O=S(=O)(O)CCCc1cccc2ccccc12 | > 100 µM |
| CC(=O)OC1/C=C(\C)C(OC(C)=O)C/C=C(/C)CCC2C(/C=C/C1=O)C2(C)C (centres undefined) | > 100 µM |
| NC(CCCCCP(=O)(c1ccccc1)C1C=CC=CC1)C(=O)O (centres undefined) | > 100 µM |
| COc1ccc(/C=C2\CCNC2=O)cc1 | > 100 µM |
| CC(C)Cc1ccc(C(C)C(=O)N2CCN(/C=C/c3ccccc3)CC2)cc1 (centres undefined) | 23.4 µM |
| CO/N=C(\C)c1ccc(Nc2nc3ccccc3c3occc23)cc1 | 53.1 µM |
| O=c1cc[nH]c(=O)[nH]1 | > 919 µM |
